Assay results taken from patent US20090181904A1, “METHOD FOR REGULATING NUTRIENT ABSORPTION WITH GINSENOSIDES” (priority 2005, published 2009).

Assays:
Assay type in all cases: cell-based, human
Caco2 cell monolayer = assay: Glucose absorption assay (transport across Caco2 monolayer in transwell, 14C-glucose); conditions: for Transport rate (glucose): 2 days pretreatment, 25 mM glucose
Experimental: For glucose absorption assay, 0.3 mL (10^5 cell/ml) of Caco2 cells were seeded into the apical chamber of each transwell and the basolateral chamber was added with 1 ml of culture medium (as indicated above). Costar transwell inserts (No. 3414, Corning Incorporated, NY, USA) separate each well in 24-well plates into an apical chamber (defined as a chamber above the insert) and a basolateral chamber (defined as a chamber below the insert). The culture medium in each transwell was changed every 2 days in both of the apical and basolateral chambers. To ensure the integrity of tight junction of Caco2 monolayer membrane formed in the transwell, a Trans-Epithelial Electrical Resistance (TEER) assay was conducted using Millicell®-ERS (Millipore EVOM-6; World Precision Instrument, Sarasota, Fla., USA) to measure the TEER between apical and basolateral chambers of the transwell. As the measured TEER reached 300 to 450 Ωcm^2 with the presence of differentiated brush border on the […] side of the cell on the 14th to 21st day of the culture, the Caco2 monolayer was ready for the glucose absorption test. The TEER values were taken before, during, and after each experiment to justify consistency of the data collected.
Glucose absorption was initiated by replacing the culture medium in the basolateral chamber with fresh glucose absorption buffer and the culture medium in the apical chamber with 0.2 mL of the glucose absorption buffer containing 2 μCi/ml of radioactive D-[^14C]-glucose (60 Ci/mmol, American Radiolabeled Chemicals, ARC, St. Louis, Mo., USA) and unlabeled cold glucose to give glucose at a final concentration of 25 mM. A series of five 10-μL samples were taken from the basolateral chamber at every 5 or 10 minute intervals. In order to maintain the constant buffer volume, same amount of sample buffer were added back to the basolateral chamber after withdrawn of each sample. The samples were transferred to the filter-bottomed UniFilter plates (Perkin-Elmer, Wellesley, Mass., USA) and dried in a vacuum oven at 37° C. The bottom of the UniFilter plate was sealed and 25 μL of the counting solution were added into each well. Adhesive plate sealers were used in place of the lids and radioactivity of each sample was counted using the microplate liquid scintillation counter (TopCount, Packard NXT, Packard BioScience Company, Meriden, Conn., USA). The effect of test compounds on glucose absorption was expressed as the nmoles of glucose accumulated in the basolateral chamber with respect to time in minutes (nmol/min). The glucose absorption rate was obtained by calculating the slope of the straight line from the time zero to the end point of the graphic data of each figure.

Caco-2 cell monolayer [1] = assay: Arginine absorption assay (transport across Caco-2 monolayer, 3H-arginine); conditions: for Transport rate (arginine): 10 mM L-arginine
Experimental: (§1) In measuring transport of arginine across the Caco-2 cell monolayer, both sides of the transwells were washed with arginine incubation buffer consisting of: 137 mM NaCl, 10 mM Hepes, 0.3 mM NaH2PO4, 0.3 mM K2HPO4, 5.4 mM KCl, 2.8 mM CaCl2, 1 mM MgSO4, 10 mM glucose, adjusted to pH 7.4. Then, the cell layer was pre-incubated in the incubation buffer at 37° C. for 1 h. The volumes of incubation buffer were 0.2 mL and 0.9 mL in the apical and basolateral chambers, respectively. The cells were replaced with fresh incubation medium in both chambers prior to the transport experiment. The transport experiment was initiated by replacing the incubation solution on the apical side with solution containing 10 mM of L-arginine in which 0.125 μCi/mL of L-[^3H]-arginine was included. At designated time intervals, 10 μL-solution samples were removed from the basolateral side and radioactivity of each sample was counted using a microplate liquid scintillation counter (TopCount, Packard NXT). During the experiment, when a 10 μL-solution sample was removed from the basolateral side every time, 10 μL buffer was supplemented to keep the volume constant. The uptake of [^3H]-mannitol was used to correct for nonspecific transport of molecules across the monolayer membrane. Results were expressed as the nanomoles of arginine transport across the Caco-2 cell monolayers with respect to time in minutes (nmol/min).

Caco-2 cell monolayer [2] = assay: Tryptophan absorption assay (transport across Caco-2 monolayer)
Experimental: as §1
The experimental procedures similar to those in Example 2 were used for measuring the uptake of tryptophan molecules across the Caco-2 membrane, except using a tryptophan incubation buffer consisting of 137 mM choline chloride, 10 mM Hepes, 0.6 mM KH2PO4, 5.4 mM KCl, 2.8 mM CaCl2, 1 mM MgSO4, and 10 mM glucose, and having its pH adjusted to 7.4. Results were expressed as the nanomoles of tryptophan transport across the Caco-2 cell monolayers with respect to time in minutes (nmol/min).

Caco2 cells = assay: Cell viability assay (CCK-8); conditions: 10 μM and 50 μM, culture medium containing 1% FBS, 5 days
Experimental: In order to investigate whether the purified ginsenosides were toxic to the Caco2 cells, a cell viability assay was carried out using culture medium supplemented with 1% and 10% FBS, respectively. The cells were seeded at a concentration of 5000 cells/well in a 96-well plate. To eliminate the boundary effect of the cell growth, the cells were only seeded in 60 wells of the middle area of the plate, whereas 36 wells at the surrounding area of the plate were filled only with 100 μL of PBS. Once the cells were attached to the plate, the cells were incubated in medium containing the purified ginsenosides at various concentrations (0, 0.1, 1, 10 and 50 μM). […]
The cell viability was determined by a Cell Counting Kit-8 (CCK-8, Dojindo Laboratories, Kumamoto, Japan) assay that was based on redox reaction of NADH in the living cells with cell proliferation reagent WST-8. […] Therefore, a greater light absorbance detected by ELISA reader at wavelength of 450 nm indicated presence of a larger number of the living cells.
The CCK-8 assay was carried out by adding 10 μL of the CCK-8 reagent in each well of a 96-format plate. The plate was then covered with aluminum foil and further incubated for two hours before measuring for absorbance at wavelengths of 450 nm using an ELISA reader.

CC(C)=CCC[C@](C)(O[C@@H]1O[C@H](CO)[C@@H](O)[C@H](O)[C@H]1O)[C@H]1CC[C@]2(C)[C@@H]1[C@H](O)C[C@@H]1[C@@]3(C)CC[C@H](O)C(C)(C)[C@@H]3[C@@H](O[C@@H]3O[C@H](CO)[C@@H](O)[C@H](O)[C@H]3O)C[C@]12C [Rg1, ginsenoside Rg1]
effect on glucose absorption (in words) (Caco2 cell monolayer): inhibitory effect | Percentage (glucose transport, control = 100) (Caco2 cell monolayer; compound 0.01 μM): 51.88% | glucose transportation (in words, FIG. 2) (Caco2 cell monolayer; compound 0.01 μM to 1 μM): clearly inhibited | Transport rate (glucose) (Caco2 cell monolayer; compound 0.01 μM): 1.1317 ± 0.1299 nmol/min | Percentage (glucose transport, control = 100) (Caco2 cell monolayer; compound 0.1 μM): 58.51% | Transport rate (glucose) (Caco2 cell monolayer; compound 0.1 μM): 1.2763 ± 0.1907 nmol/min | Percentage (glucose transport, control = 100) (Caco2 cell monolayer; compound 1 μM): 96.68% | Transport rate (glucose) (Caco2 cell monolayer; compound 1 μM): 2.1089 ± 0.2097 nmol/min | Percentage (arginine transport, control = 100) (Caco-2 cell monolayer [1]; compound 0.01 μM): 126.89% | Transport rate (arginine) (Caco-2 cell monolayer [1]; compound 0.01 μM): 13.5583 ± 1.1940 nmol/min | Percentage (arginine transport, control = 100) (Caco-2 cell monolayer [1]; compound 0.1 μM): 210.91% | Transport rate (arginine) (Caco-2 cell monolayer [1]; compound 0.1 μM): 22.5370 ± 0.8912 nmol/min | Percentage (arginine transport, control = 100) (Caco-2 cell monolayer [1]; compound 1 μM): 171.51% | Transport rate (arginine) (Caco-2 cell monolayer [1]; compound 1 μM): 18.3265 ± 0.8965 nmol/min | * (arrow: regulatory effect on tryptophan transport) (Caco-2 cell monolayer [2]; compound 0.001 μM): ↑ | Percentage (tryptophan transport, control = 100) (Caco-2 cell monolayer [2]; compound 0.001 μM): 130.17% | Transport rate (tryptophan) (Caco-2 cell monolayer [2]; compound 0.001 μM): 16.180 ± 2.8700 nmol/min | tryptophan transport rate (in words) (Caco-2 cell monolayer [2]; compound 0.001 μM to 0.1 μM): increased | * (arrow: regulatory effect on tryptophan transport) (Caco-2 cell monolayer [2]; compound 0.01 μM): ↑ | Percentage (tryptophan transport, control = 100) (Caco-2 cell monolayer [2]; compound 0.01 μM): 133.47% | Transport rate (tryptophan) (Caco-2 cell monolayer [2]; compound 0.01 μM): 16.590 ± 1.4190 nmol/min | * (arrow: regulatory effect on tryptophan transport) (Caco-2 cell monolayer [2]; compound 0.1 μM): ↑ | Percentage (tryptophan transport, control = 100) (Caco-2 cell monolayer [2]; compound 0.1 μM): 142.48% | Transport rate (tryptophan) (Caco-2 cell monolayer [2]; compound 0.1 μM): 17.710 ± 0.5948 nmol/min | cytotoxicity to Caco2 cells (cell viability) (Caco2 cells): exhibited cytotoxicity
